# Assays:
# Cat Flea = assay: Flea Contact Assay (FCA)
# Procedure: Flea Contact Assay (FCA)/Cat Flea: Test material is formulated in acetone at the desired exposure concentration and doubling dilutions performed to obtain a total of 10 testing levels. Approximately 0.05 ml of formulated material is dispensed into the bottom of a test tube containing a small amount of dog hair. Acetone is allowed to evaporate under a fume hood overnight. Approximately 10 mixed-sex adult cat flea are anesthetized using carbon dioxide and dispensed into each tube. Tubes are sealed using a ventilated plastic cap and incubated at 27° C. and 75-80% relative humidity. […] Nonlinear regression is used to model dose-mortality relationship and obtain relative potency (LD50) data compared to contemporaneous controls (acetone-only or fipronil).
# [1] = tested on: Lone Star Tick (Amblyomma americanum); assay: Cattle Ectoparasiticide Test, single dose whole-body spray against lone star tick; format: in vivo
# Text: (§1) Cattle Ectoparasiticide Test (CET)/Horn Fly (Haematobia irritans) and/or Adult Tick (Amblyomma americanum): Cattle are housed in environmentally controlled rooms, 1 or 2 animals per room that have screened doors and ventilation system to prevent fly escape. Following treatment application, a defined number of horn flies are released into each room (typically at or above economic threshold of 200 flies per animal). After defined periods of time, the numbers of live horn flies remaining on animals are enumerated. If a combination horn fly and tick experiment is conducted, adult lone star ticks are placed into surgical stockinette enclosures that are glued onto the backs of cattle. Cattle are restrained in a modified head gate within environmentally controlled rooms. Horn flies may be enumerated, followed by determination of the numbers of dead ticks inside of containment units. Typically there are 2 containment units per animal and at least 2 animals per treatment group.
# A) Single Dose Efficacy Testing and Comparison of Spinetoram with Elector against Lone Star Tick (Amblyomma americanum) Infestations on Cattle. Technical spinetoram was formulated as a 25 g/L suspension concentrate using the same formulatin components as found in Elector. Test material was applied to animals as a whole-body topical spray. Total of two animals per treatment group; each animal harbored ticks inside of 3 containment units (n=3 per animal or n=6 per treatment group). Concentrates (25 g/L) diluted in water; treatment level equivalent to marketed rate for Elector (0.5 g AI per animal).
# [2] = tested on: Horn Fly (Haematobia irritans); assay: Cattle Ectoparasiticide Test, pour-on or spray against horn flies; format: in vivo
# Text: as §1
# B) Therapeutic and residual efficacy testing of spinetoram and Elector against horn flies when applied topically to cattle as a pour-on or topical spray. Spinetoram (120 g/L), Elector (25 g/L spinosad) as described previously were used. Test material was applied to animals as either a whole-body topical spray or neat pour-on. Spinetoram was diluted in water to 25 g/L prior to application as a pour-on. Both materials were diluted in water to 0.04% (400 ppm) for application as a whole-body spray in a total volume of 1 L per animal. There were a total of six animals per treatment group (n=6) plus six negative control animals. Beef and dairy cattle were used. Following treatments, horn flies were released into rooms harboring cattle. Live flies were enumerated 24 h following challenges.
# House Fly = assay: Adult House Fly Assay (AhsF); set-up: species or system Musca domestica; settings: House Fly, 24 h
# Procedure: Adult Stable or House Fly Assay (ASF, AhsF). This assay is conducted essentially as described in White, W. H., S. M. Bauer, X. Zhao et al., Comparison of in vitro and in vivo ectoparasiticide activity of an experimental benzimidazole-carbamate with permethrin and amitraz, J. Med. Entomol. 42, 207-211 (2005); and White, W. H., C. M. McCoy, J. A. Meyer et al., Knockdown and mortality comparisons among spinosad-, imidacloprid-, and methomyl-containing baits against susceptible Musca domestica (Diptera: Muscidae) under laboratory conditions, J. Econ. Entomol. 100, 155-163 (2007).
# Test material is formulated in DMSO at 10 mM. Doubling dilutions in like solvent are made to yield 10 testing levels. Materials are diluted in either bovine serum (stable flies) or 5% glucose solution (house flies) to obtain desired exposure concentrations from 200-0.39 μM. Approximately 3 ml of diluted test material is placed into a test tube (n=3 per test level) and a dental wick is used to absorb fluid. One dental wick is placed into a small weigh boat inside of a 100 mm Petri dish. Approximately 10 mixed-sex adult flies are anesthetized using carbon dioxide and counted into each dish. Dishes are incubated at 27° C. and 50-70% relative humidity. Flies recover from anesthesia and feed on compound-soaked dental wicks. After 24 h, live/dead flies are enumerated. Nonlinear regression is used to model dose-mortality relationship and obtain relative potency (LD50) data compared to contemporaneous controls (solvent-only or permethrin).
# Lone Star Tick = assay: Larval Packet Test (LPT)
# Procedure: Larval Packet Test (LPT)/Ticks: Test material is formulated in a 2:1 ratio of trichloroethylene: olive oil. Tissue biopsy bags are saturated with 1 ml of formulated material (n=3 per test level), and bags are allowed to dry under a fume hood for at least 2 hours. Approximately 50-100 larval-stage ticks are placed into each bag, and the bag is sealed using a plastic dialysis clip and incubated for 24 h at 27° C. and 95% relative humidity. Bags are then opened, and live/dead ticks are enumerated. Nonlinear regression is used to model dose-mortality relationship and obtain relative potency (LD50) data compared to contemporaneous controls (solvent-only or fipronil).
# [3] = tested on: ticks (Amblyomma americanum); assay: Surrogate Animal bioassay, topical exposure on rats; format: in vivo; settings: formulated in ethanol, 48 h
# Procedure: Surrogate Animal bioassay/ticks(Amblyomma americanum) and fleas:
# Topical exposure—Test materials are formulated in ethanol or acetone at the desired testing concentrations, typically 6% active ingredient or lower. Either doubling or log-dilutions are performed in ethanol to obtain additional testing concentrations (3.0, 0.3, 0.03, and 0.003 mg/cm^3). A tick containment unit is affixed to the back or adult male or female rats, and 0.05 ml of formulated test material is applied topically to the surface area inside of the containment unit. Materials are allowed to dry overnight, after which time 10 unfed dog tick nymphs are placed into each containment unit. A total of 5 rats are normally used for each test concentration. Ticks are allowed to attach and feed on treated animals for 48 h, after which time containment units are opened and live/dead ticks are enumerated. Rats may be co-infested with adult cat fleas at the time of tick infestation to obtain data for topical insecticide activity using the same animal.
substance,measurement,setting,value
Spinetoram,Potency (EC50 ng/cm^2) 24 h,"Cat Flea; Cat Flea, 24 h",1.292 ng/cm^2
same,Spinetoram: Spinosad Potency Ratio 24 h,"Cat Flea; Cat Flea, 24 h",2.4
same,Potency (EC50 ng/cm^2) 48 h,"Cat Flea; Cat Flea, 48 h",0.6238 ng/cm^2
same,Spinetoram: Spinosad Potency Ratio 48 h,"Cat Flea; Cat Flea, 48 h",2.4
same,times more potent than spinosad in vitro,"Cat Flea; adult cat fleas, time not stated",2.4 times
same,"percent tick reduction, 2 hr","[1]; cattle, whole-body spray 0.5 g AI per animal, Day 1, 2 hr",0%
same,"percent tick reduction, 6 hr","[1]; cattle, whole-body spray 0.5 g AI per animal, Day 1, 6 hr",0%
same,"percent tick reduction, 10 hr","[1]; cattle, whole-body spray 0.5 g AI per animal, Day 1, 10 hr",0%
same,"percent tick reduction, 24 hr","[1]; cattle, whole-body spray 0.5 g AI per animal, Day 2, 24 hr",0%
same,"percent tick reduction, 48 hr","[1]; cattle, whole-body spray 0.5 g AI per animal, Day 3, 48 hr",8.14%
same,"percent tick reduction, 72 hr","[1]; cattle, whole-body spray 0.5 g AI per animal, Day 4, 72 hr",8.14%
same,"percent tick reduction, 144 hr","[1]; cattle, whole-body spray 0.5 g AI per animal, Day 7, 144 hr",46.67%
same,ET50,"[1]; speed of kill, adult lone star ticks on cattle, 0.5 g AI per animal",148.2 h
same,activity (potency and speed of kill) compared to Elector,[1]; topically to cattle at 0.5 g/animal,equivalent activity
same,"GM percent horn fly reduction after 24 hrs, Pour-on","[2]; cattle, pour-on 2 mg/kg, Initial",100%
same,"GM percent horn fly reduction after 24 hrs, Spray","[2]; cattle, whole-body spray 0.04% AI, Initial",99.9%
same,therapeutic efficacy compared with Elector,"[2]; horn fly infested cattle, pour-on (2 mg/kg) or whole-body spray (0.04% AI)",equivalent therapeutic efficacy
same,Spinetoram: Spinosad Potency Ratio,House Fly,5.5
same,EC50,House Fly; read-out: Potency (24 h EC50 μM),2.18 µM
same,Spinetoram/Spinosad Potency Ratio,Lone Star Tick; Lone Star Tick,0.4
same,Potency (EC50),"Lone Star Tick; Lone Star Tick larvae, 24 h",531.6 ppm
same,topical activity against tick nymphs compared to spinosad,[3],equivalent to that of spinosad

# Source: patent US20150045313A1, “Ectoparasiticidal Methods and Formulations” (Eli Lilly and Company, priority 2009, published 2015)
